*1 amine or outer side, *2 acyl side, *3 side chain or, on linkers, in order; H or OH if unused. Where a SMILES comes first, the peptide text is derived from it. Bridges are numbered along the chain shown (N, C = ends). [ ]: non-standard residue; d: D form. The star is where a group is joined. hPhe(3,5-F2-4-CF3) = N[C@@H](CCc1cc(F)c(C(F)(F)F)c(F)c1)C(=O)O; hPhe(3-Cl-4-CF3) = N[C@@H](CCc1ccc(C(F)(F)F)c(Cl)c1)C(=O)O; X17 = CCCCN([C@@H](Cc1ccc(C(F)(F)F)cc1)C(=O)[*:2])[*:1]; NPrPhe(4-CF3) = CCCN[C@@H](Cc1ccc(C(F)(F)F)cc1)C(=O)O; NMeGly(cPent) = CN[C@H](C(=O)O)C1CCCC1; αMeCha = C[C@](N)(CC1CCCCC1)C(=O)O; NMeD = CN[C@@H](CC(=O)O)C(=O)O; NMeL = CN[C@@H](CC(C)C)C(=O)O; Morpholide = C1CN(*)CCO1; NMeA = CN[C@@H](C)C(=O)O; Ac5c = NC1(C(=O)O)CCCC1; Aze = O=C(O)[C@@H]1CCN1; Ac4c = NC1(C(=O)O)CCC1; Sar = CNCC(=O)O
How the values were obtained:
[1] = biological target: GDP-bound NRAS wild-type protein (Homo sapiens, UniProt P01111); assay: Binding to NRAS by surface plasmon resonance (SPR), Single Cycle Kinetics; conditions: for NRAS/KRAS (ratio of KD value for NRAS to KD value for KRAS): GDP-bound NRAS wild-type vs GDP-bound KRAS wild-type
GDP-bound NRAS wild-type protein, sequence (P01111 whole entry): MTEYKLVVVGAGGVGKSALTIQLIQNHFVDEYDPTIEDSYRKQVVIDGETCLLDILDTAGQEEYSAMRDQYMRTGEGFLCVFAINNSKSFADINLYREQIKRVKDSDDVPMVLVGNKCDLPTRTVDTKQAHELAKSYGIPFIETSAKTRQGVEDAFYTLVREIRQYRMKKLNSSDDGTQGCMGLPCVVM

[2] = biological target: GDP-bound HRAS wild-type protein (Homo sapiens, UniProt P01112); assay: Binding to HRAS by surface plasmon resonance (SPR), Single Cycle Kinetics; conditions: for HRAS/KRAS (ratio of KD value for HRAS to KD value for KRAS): GDP-bound HRAS wild-type vs GDP-bound KRAS wild-type
GDP-bound HRAS wild-type protein, sequence (P01112 whole entry): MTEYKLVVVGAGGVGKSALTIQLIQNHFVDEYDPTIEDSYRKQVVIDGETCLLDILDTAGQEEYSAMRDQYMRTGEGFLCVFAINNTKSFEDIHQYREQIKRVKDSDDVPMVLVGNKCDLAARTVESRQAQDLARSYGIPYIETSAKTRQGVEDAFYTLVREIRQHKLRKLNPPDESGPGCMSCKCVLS

[3] = SPR, GDP-bound wild-type proteins

## CCCCN1C(=O)[C@@H]2CCN2C(=O)[C@H](C)N(C)C(=O)[C@H]([C@@H](C)CC)NC(=O)[C@H](CC(C)C)N(C)C(=O)C[C@@H](C(=O)N2CCOCC2)N(C)C(=O)[C@H](C2CCCC2)N(C)C(=O)C2(CCCC2)NC(=O)[C@@H]2CCCN2C(=O)[C@H](CCc2ccc(C(F)(F)F)c(Cl)c2)NC(=O)CN(C)C(=O)[C@@H]1Cc1ccc(C(F)(F)F)cc1 [PP0106] ([NMeL]I[NMeA][Aze][X17][Sar][hPhe(3-Cl-4-CF3)]P[Ac5c][NMeGly(cPent)][NMeD]-Morpholide; lactam N-11)
[1]; SPR
  NRAS/KRAS (ratio of KD for GDP-bound NRAS wild-type to KD for KRAS): C (A compound having a KD ratio of 0.1 or more and less than 3 is denoted as C)
[2]; SPR
  HRAS/KRAS (ratio of KD for GDP-bound HRAS wild-type to KD for KRAS): B (a compound having 3 or more and less than 10 is denoted as B)

## CC[C@H](C)[C@@H]1NC(=O)[C@@H]2CCCc3ccc(cc3)C[C@@H](C(=O)N(C)CC(=O)N[C@@H](CCc3ccc(C(F)(F)F)c(OC)c3)C(=O)N3C[C@H](OC4CCC4)C[C@H]3C(=O)NC3(CC(C)(C)C3)C(=O)N(C)[C@@H](C3CCCC3)C(=O)N(C)[C@H](C(=O)N(C)CC)CC(=O)N2C)N2CC/C=C\C[C@@H](C2=O)N(C)C(=O)CN(C)C1=O [PP3085]
[1]; [3]
  NRAS/KRAS (ratio of KD value with respect to GDP-bound NRAS wild-type protein to KD value with respect to KRAS): A (a compound having 10 or more and less than 20 is denoted as A)
[2]; [3]
  HRAS/KRAS (ratio of KD value with respect to GDP-bound HRAS wild-type protein to KD value with respect to KRAS): B (a compound having 3 or more and less than 10 is denoted as B)

## CCO[C@@H]1C[C@H]2C(=O)NC3(CC(F)(F)C3)C(=O)N(C)[C@@H](C(CC)CC)C(=O)N3CCC[C@@H]3CC(=O)N(C)[C@@H](CC)C(=O)N[C@@H]([C@@H](C)CC)C(=O)N(C)CC(=O)N(C)[C@H]3C/C=C\CCN(C3=O)[C@@H](Cc3ccc(C(F)(F)F)cc3)C(=O)N(C)CC(=O)N[C@@H](CCc3cc(F)c(C(F)(F)F)c(F)c3)C(=O)N2C1 [PP1608]
[1]; SPR
  NRAS/KRAS (ratio of KD value for NRAS to KD value for KRAS): A (a compound having 10 or more and less than 20 is denoted as A)
[2]; SPR
  HRAS/KRAS (ratio of KD value for HRAS to KD value for KRAS): A (a compound having 10 or more and less than 20 is denoted as A)

## CCCN1C(=O)[C@@H]2CCN2C(=O)CN(C)C(=O)[C@H]([C@@H](C)CC)NC(=O)[C@H](CC(C)C)N(C)C(=O)C[C@@H](C(=O)N2CCOCC2)NC(=O)[C@H](C2CCCC2)N(C)C(=O)C2(CCC2)NC(=O)[C@@H]2CCCN2C(=O)[C@H](CCc2ccc(C(F)(F)F)c(Cl)c2)NC(=O)CN(C)C(=O)[C@@H]1Cc1ccc(C(F)(F)F)cc1 [PP0350] ([NMeL]I[Sar][Aze][NPrPhe(4-CF3)][Sar][hPhe(3-Cl-4-CF3)]P[Ac4c][NMeGly(cPent)]D-Morpholide; lactam N-11)
[1]; SPR
  NRAS/KRAS (ratio of KD for GDP-bound NRAS wild-type to KD for KRAS): C (A compound having a KD ratio of 0.1 or more and less than 3 is denoted as C)
[2]; SPR
  HRAS/KRAS (ratio of KD for GDP-bound HRAS wild-type to KD for KRAS): B (a compound having 3 or more and less than 10 is denoted as B)

## CCCN1C(=O)[C@@H]2CCN2C(=O)CN(C)C(=O)[C@H]([C@@H](C)CC)NC(=O)[C@H](CC(C)C)N(C)C(=O)C[C@@H](C(=O)N2CCOCC2)N(C)C(=O)[C@H](C2CCCC2)N(C)C(=O)[C@](C)(CC2CCCCC2)NC(=O)[C@@H]2CCCN2C(=O)[C@H](CCc2cc(F)c(C(F)(F)F)c(F)c2)NC(=O)CN(C)C(=O)[C@@H]1Cc1ccc(C(F)(F)F)cc1 [PP0796] ([NMeL]I[Sar][Aze][NPrPhe(4-CF3)][Sar][hPhe(3,5-F2-4-CF3)]P[αMeCha][NMeGly(cPent)][NMeD]-Morpholide; lactam N-11)
[1]; SPR
  NRAS/KRAS (ratio of KD value with respect to GDP-bound NRAS wild-type protein to KD value with respect to KRAS): C (A compound having a KD ratio of 0.1 or more and less than 3 is denoted as C)
[2]; SPR
  HRAS/KRAS (ratio of KD value with respect to GDP-bound HRAS wild-type protein to KD value with respect to KRAS): B (a compound having 3 or more and less than 10 is denoted as B)

## CC[C@H](C)[C@@H]1NC(=O)[C@H](CC(C)C)N(C)C(=O)C[C@@H](C(=O)N2CCOCC2)NC(=O)[C@H](C2CCCC2)N(C)C(=O)C2(CCCC2)NC(=O)[C@@H]2CCCN2C(=O)[C@H](CCc2cc(F)c(C(F)(F)F)c(F)c2)NC(=O)CN(C)C(=O)[C@H](Cc2ccc(C(F)(F)F)cc2)N2CCCC[C@@H](C2=O)N(C)C(=O)CN(C)C1=O [PP0541]
[1]; SPR
  NRAS/KRAS (ratio of KD value with respect to GDP-bound NRAS wild-type protein to KD value with respect to KRAS): B (a compound having 3 or more and less than 10 is denoted as B)
[2]; SPR
  HRAS/KRAS (ratio of KD value with respect to GDP-bound HRAS wild-type protein to KD value with respect to KRAS): B (a compound having 3 or more and less than 10 is denoted as B)

## CCO[C@@H]1C[C@H]2C(=O)NC3(CC(C)(C)C3)C(=O)N(C)[C@@H](C3CCCCC3)C(=O)N(C)[C@H](C(=O)N(C)C)CC(=O)N(C)[C@@H](CC)C(=O)N[C@@H]([C@@H](C)CC)C(=O)N(C)CC(=O)N(C)[C@H]3C/C=C\CCN(C3=O)[C@@H](Cc3ccc(C(F)(F)F)cc3)C(=O)N(C)CC(=O)N[C@@H](CCc3cc(F)c(C(F)(F)F)c(F)c3)C(=O)N2C1 [PP1942]
[1]; SPR
  NRAS/KRAS (ratio of KD value for NRAS to KD value for KRAS): AA (a compound having 20 or more is denoted as AA)
[2]; SPR
  HRAS/KRAS (ratio of KD value for HRAS to KD value for KRAS): A (a compound having 10 or more and less than 20 is denoted as A)

## CCO[C@@H]1C[C@H]2C(=O)NC3(CCC3)C(=O)N(C)[C@@H](C3CCCC3)C(=O)N(C)[C@H](C(=O)N(C)CC)CC(=O)N(C)[C@@H](CC(C)C)C(=O)N[C@@H]([C@@H](C)CC)C(=O)N(C)CC(=O)N(C)[C@H]3C/C=C\CCN(C3=O)[C@@H](Cc3ccc(C(F)(F)F)cc3)C(=O)N(C)CC(=O)N[C@@H](CCc3ccc(Cl)c(Cl)c3)C(=O)N2C1 [PP2845]
[1]; class symbols
  NRAS/KRAS (ratio of KD value with respect to GDP-bound NRAS wild-type protein to KD value with respect to KRAS): AA (a compound having 20 or more is denoted as AA)
[2]; class symbols
  HRAS/KRAS (ratio of KD value with respect to GDP-bound HRAS wild-type protein to KD value with respect to KRAS): A (a compound having 10 or more and less than 20 is denoted as A)
